Like-named read-outs stand apart in the source and are kept apart here. Where no end group is shown, it is not given here.
How the values were obtained:
[1] = tested on: B cells; test: Peptide binding by flow cytometry; design: species or system human
Method: (§1) The cells were seeded onto 24-well plate (3×10^5/well/0.5 ml) in X-vivo 15 medium and incubated overnight at 37° C. Subsequently, they were incubated with 6IAF-conjugated peptides (5 μg/ml) for 30 min at 37° C., gently scraped, washed 3 times and then analyzed by flow cytometry. Binding was also performed at 4° C.

[2] = tested on: Blood myeloid DCs; test: Peptide binding by flow cytometry; design: species or system human
Method: as §1

[3] = tested on: Blood pDCs; test: Peptide binding by flow cytometry; design: species or system human
Method: as §1

[4] = tested on: Monocytes; test: Peptide binding by flow cytometry; design: species or system human; details: compared with dendritic cells
Method: as §1

[5] = tested on: NK cells; test: Peptide binding by flow cytometry; design: species or system human
Method: as §1

[6] = tested on: T cells; test: Peptide binding by flow cytometry; design: species or system human
Method: as §1

[7] = tested on: iDCs; test: Peptide binding by flow cytometry; design: species or system human; details: 4° C. and 37° C.
Method: as §1

[8] = tested on: iDC; test: Competition of NW phage binding by synthetic peptides; design: species or system human
Method: (§2) In brief, aliquots of DCs (10^5) were divided into conical 96-well micro-plate, washed with PBS buffer containing 1% FCS, and then incubated with the amplified phages (≈10^9 TU) for 30-60 min on ice. After washing, cells were incubated with biotinylated anti-M13 monoclonal antibody (Abcam) and then with phycoerythrin (PE)-conjugated streptavidin. Competition assays were performed by pre-incubating DCs with different amounts of the peptides for 15 min on ice. Then NW phage (≈10^9 TU) was added and samples incubated for additional 60 min on ice. After washing, bound phages were detected as indicated above. Samples were analyzed by FACSCanto II flow cytometry.
To further investigate the importance of the NW peptide on phage binding, competition experiments were performed using synthetic peptides.

[9] = target: Monocytes; test: Competition of NW phage binding by NW peptide and its mutant peptides; design: species or system human
Method: as §2
To uncover the contribution of individual side chains and identify which amino acids are responsible for the NW peptide binding to monocytes and dendritic cells, alanine scanning was performed. Derivatives of the NW peptide were synthesized with exchange of each amino acid by alanine (FIG. 11A). These peptide derivatives were used to compete with the NW phage binding to monocytes. For each peptide, four concentrations were tested. Bound phage particles were detected with the use of biotin conjugated anti-M13 antibody and PE-conjugated streptavidin. The NW peptide (WT) competed effectively with the phage binding to monocytes with an IC50 of approximately 0.5 uM. The replacement of tryptophan (W) at position 2, 6, or 12 by a single alanine abolished the binding. Indeed, no significant competition with the phage binding was seen even at high peptide concentrations (C4=20 uM). Similarly, replacement of leucine (L) at position 4 or 7 by alanine inhibited the peptide binding (FIG. 11B).

[10] = tested on: iDCs; test: Peptide binding and internalization by fluorescence microscopy; format: cell-based, human
Method: Then the medium was replaced with fresh medium and the cells were incubated with the peptides (5 μg/ml) for 60 min at 37° C. followed by 5 min incubation with Hoechst 33342 (Invitrogen Dynal AS, Oslo, Norway). The cells were washed twice with PBS and fixed with 4% paraformaldehyde for 15 min at 4° C. After washing, slides were covered with Dako cytomation fluorescent mounting medium and then images were taken with either epifluorescence (Leica DM RHC, Leica Microscopy As, Oslo, Norway) or confocal microscopy (Zeiss LSM 510, […]).

[11] = tested on: mDC; test: Phenotypic analysis of DCs after peptide incubation; format: cell-based, human; details: mDC incubated with peptide (15 μM) for 48 h, flow cytometry
Method: Phenotype of DCs was analyzed by direct immunofluorescence staining of cell surface antigens using FITC or PE conjugated antibodies against CD80, CD83, CD86, HLA-DR, CCR7, CD40, and isotype controls. All antibodies were purchased from Dako (Glostrup, Denmark) or BD Biosciences (San Diego, Calif., USA). After staining on ice for 30 min, samples were washed twice and then analyzed by FACSCantoII flow cytometry
(§3) With respect to cancer immunotherapy and active immunization against infectious diseases, targeting moieties should not have a negative impact on DC immunogenic function. To investigate whether the NW peptide can modulate DC phenotype and function, mDC were incubated with the peptide for 48 h and subsequently the expression of CD80, CD83, CD86, and HLADR molecules were analyzed by flow cytometry. […] The ability of mDCs to stimulate T-cell proliferation was assessed in a mixed leukocyte reaction (MLR), a hallmark of DC function. […] The NW-peptide had no major negative effects on DC phenotype and function.

[12] = tested on: mDCs; test: Mixed leukocyte reaction (MLR); format: cell-based, human; details: peptide-treated vs untreated mDCs
Method: as §3

[13] = tested on: human Gal-3; test: Gene silencing by peptide-siRNA conjugates, Western blot; format: cell-based; details: iDCs, 48 h incubation
Method: Immature DCs were seeded in a 6-well plate at a density of 10^6 cells per well and incubated for 24 h prior to transfection. Then the medium was replaced by fresh X-vivo 15 medium (2 ml/well) containing peptide-siRNA conjugates or free siRNAs. Cells were harvested 48 h after addition of the test molecules and monitored for gene expression by Western blots.
Cells were resuspended in protein extraction buffer (PBS+1% NP-40) supplemented with protease inhibitor cocktail (Sigma-Aldrich Norge, Oslo, Norway) and incubated for 30 min on ice. After centrifugation, the supernatant were collected and protein contents were determined using Bio-Rad protein assay. Equal amounts of protein were resolved by electrophoresis on a 10% sodium dodecyl sulfate (SDS)-polyacrylamide gel and electrotransferred to nitrocellulose membrane. After blocking in 5% milk in TBS-Tween (1%) for 60 min, membranes were probed with primary antibodies against Gal-3 and HRP-conjugated secondary antibody. Immunoreactive proteins were detected using the enhanced chemiluminescence system. To control for protein loading, membranes were stripped and then incubated with β-actin monoclonal antibody.
Because siRNA molecules must be released into the cytoplasm in order to function (Elbashir et al., (2001) Nature 411, 494-498), the data further confirm the internalization of the peptide after binding to DCs.

NWYLPWLGTNDWC [NW peptide, NWYLPWLGTNDWC]
peptide binding [1]: did not bind | peptide binding ([2]; Blood myeloid DCs): ++++ (Binding >80-100%: ++++) | peptide binding ([2]; blood CD1c+ myeloid DCs): bound efficiently | peptide binding ([2]; blood CD1c+ myeloid DCs, listed as synthetic peptide): bound | peptide binding ([3]; Blood pDCs): ++++ (Binding >80-100%: ++++) | peptide binding ([3]; CD303+ plasmacytoid DCs): bound efficiently | peptide binding ([3]; CD303+ plasmacytoid DCs, listed as synthetic peptide): bound | peptide binding [4]: bound as strongly to monocytes as to dendritic cells | peptide binding [5]: did not bind | peptide binding [6]: did not bind | binding of 6-IAF-conjugated peptides to iDCs [7]: strong binding both at 4 °C and 37 °C | inhibition of the phage binding to iDC by synthetic peptides [8]: effectively inhibited the phage binding to iDC in a concentration-dependent manner | IC50 ([9]; dose-dependent inhibition, peptide concentrations 0.4, 2, 8, and 20 μM, read-out: inhibition of the NW phage binding, IC50): 500 nM | IC50 ([9]; monocytes, read-out: competition with the phage binding to monocytes, IC50): ~500 nM | cell staining by epifluorescence microscopy ([10]; 6-IAF-conjugated peptide): strong cell staining | internalization by iDCs (confocal microscopy) ([10]; 37° C.): efficiently internalized by iDCs | expression of CD80, CD83, CD86, and HLADR molecules [11]: None of the analyzed markers were significantly affected | T-cell proliferation in MLR [12]: comparable T-cell proliferation | Gal-3 gene silencing [13]: did not induce any detectable gene silencing
